Experimental data reported in patent publication US8895717B2, “Delivery of siRNA by neutral lipid compositions” (The Board of Regents of the University of Texas System, priority 2005, dated 2014).
Counter-ions that a name gives are not always drawn.

Experiments:
HeyA8 cells [1] = assay: Chronic restraint stress, HeyA8 orthotopic tumor growth; assay type: in vivo, nude mice; conditions: propranolol Alzet pump 2 mg/kg/day
Text: Mice habituated to vivarium conditions for 1 week before the initiation of stress procedures. A restraint-stress procedure was used based on previous studies (Sheridan et al., 1991), substituting a novel Mouse Restraint System (FIG. 15A) for conical centrifuge tubes. In this system, up to 10 mice are placed in individual slots, and each slot can be adjusted to restrain the animal for a desired length of time. In the present study, restraint stress began between 8 a.m. and 10 a.m., and lasted for 2-6 hours for up to 21 days. […] Immunohistochemistry and H&E staining procedures were carried out on formalin-fixed paraffin-embedded tumors. […] Pumps were inserted on the nape of the neck 7 days prior to initiation of restraint stress for 2 hours daily. Mice were anesthetized with inhaled methoxyflurane (Medical Developments Australia Pty. Ltd, Melbourne, Australia), and implanted with Alzet pumps containing PBS or S-propranolol hydrochloride (Sigma Co., St. Louis, Mo.) diluted in PBS at a dose of 2 mg/kg/day, which allows for chronic continuous receptor blockade, for 28 days (Aarons and Molinoff, 1982; Exton et al., 2002).

HeyA8 cells [2] = assay: Daily β-agonist treatment of mice bearing HeyA8 ovarian cancer cells; assay type: in vivo, nude mice; conditions: terbutaline 5 mg/kg, xamoterol 1 mg/kg, isoproterenol plus propranolol 2 mg/kg, daily
Text: Mice habituated to vivarium conditions for 1 week before the initiation of stress procedures. A restraint-stress procedure was used based on previous studies (Sheridan et al., 1991), substituting a novel Mouse Restraint System (FIG. 15A) for conical centrifuge tubes. In this system, up to 10 mice are placed in individual slots, and each slot can be adjusted to restrain the animal for a desired length of time. In the present study, restraint stress began between 8 a.m. and 10 a.m., and lasted for 2-6 hours for up to 21 days. The ovarian cancer cell lines were harvested from subconfluent cultures by a brief exposure to 0.25% trypsin and 0.02% EDTA, resuspended in Hank's balanced salt solution (HBSS), and tested for >95% viability by trypan blue dye exclusion. The HeyA8 cells were injected i.p. into mice at a concentration of 2.5×10^5 cells while the other cell lines were injected at 1.0×10^6 cells per 0.2 ml HBSS, ten days after starting stress in all groups. Animals were necropsied 21 days after tumor injection, and tumors in the peritoneal cavity were excised, weighed, and documented for location. Immunohistochemistry and H&E staining procedures were carried out on formalin-fixed paraffin-embedded tumors.
Starting 4 days after tumor cell injection, mice bearing HeyA8 ovarian cancer cells (n=10 per group) were treated daily with either 1) PBS; 2) isoproterenol (non-specific β-agonist) 10 mg/kg; 3) terbutaline (β2-agonist) 5 mg/kg; 4) xamoterol (β1-agonist) 1 mg/kg; or 5) isoproterenol plus 2 mg/kg of the non-specific β-antagonist propranolol.

HeyA8 tumor samples = assay: Mean vessel density (CD31) in HeyA8 tumor samples; assay type: in vivo, nude mice; conditions: for MVD counts: daily agonist treatment
Protocol: Paraffin sections were stained for CD31 (1:800 dilution, Pharmingen, San Jose, Calif.), MMP-2 (1:500 dilution, Chemicon, Temecula, Calif.), MMP-9 (1:200 dilution, Calbiochem, San Diego, Calif.), VEGF (1:500 dilution, Santa Cruz Biotechnology, Santa Cruz, Calif.) and bFGF (1:1,000 dilution, Sigma, St. Louis, Mo.) at 4° C. Samples were stained with a biotinylated goat anti-rabbit antibody for 30 min (prediluted), followed by strepavidin horseradish peroxidase for 30 min (1:300 dilution), and visualized in 3,3′-diaminobenzidine (DAB) for 5-10 min.
To quantify MVD, 10 random 0.159 mm^2 fields at 100× magnification were examined for each tumor, and the microvessels within those fields were counted. A single microvessel was defined as a discrete cluster of cells stained CD31(+), and the presence of a lumen was required for scoring as a microvessel.

VEGF mRNA = VEGF mRNA expression, real-time RT-PCR; assay type: cell-based, human; conditions: SKOV3ip1; forskolin 1 μM, db-cAMP 1 mM
Protocol: Total RNA was extracted (Trizol reagent; Invitrogen Co, Carlsbad, Calif.) and reverse transcribed using an oligo(dT) primer and M-MLV reverse transcriptase (Life Technologies, Inc., Rockville, Md.) in a final reaction volume of 20 μl (60 min at 42° C.). PCR amplifications are performed using the ABI Prism 7700 Sequence Detection System with TaqMan One-Step RT-PCR Master Mix Reagent kit (PE Applied Biosystems, Foster City, Calif.). Quantitative values are obtained from the Ct value, at which the increase in fluorescent signal associated with exponential growth of PCR products starts to be detected by the laser detector of the Sequence Detection System, using the analysis software according to the manufacturer's instructions (each sample is normalized on the basis of its I8S content). The VEGF primers were obtained from Applied Biosystems (Item number HS00173626-ml). βAR expression was examined with semi-quantitative RT-PCR using the following primers: βAR (forward, 5′-[…]-3′ (SEQ ID NO:13), reverse, 5′-[…]-3′) (SEQ ID NO:14); β2AR (forward, 5′-[…]-3′ (SEQ ID NO:15), reverse, 5′-[…]-3′) (SEQ ID NO:16).

HeyA8 cells [3] = assay: TUNEL apoptosis assay, HeyA8; assay type: cell-based, human; conditions: HeyA8, docetaxel 72 hours without or with DEVD-fmk
Protocol: (§1) Terminal deoxynucleotidyl transferase-mediated nick end labeling-positive cells were detected using Dead End Fluorometric terminal deoxynucleotidyl transferase-mediated nick end labeling system (APO-DIRECT, BD Biosciences/PharMingen, San Diego, Calif.) according to the manufacturer's instructions. […] Cells were fixed with 4% paraformaldehyde solution for 25 minutes on ice. Intracellular DNA fragments were then labeled by exposing cells to fluorescein-12-dUTP, treated with propidium iodide and RNaseA solution, and analyzed by flow cytometry (EPICS XL, Beckman Coulter, Miami, Fla.). The percentages of apoptotic cells were averaged over three consecutive experiments.

SKOV3 cells = assay: TUNEL apoptosis assay, SKOV3; assay type: cell-based, human; conditions: SKOV3, docetaxel 72 hours without or with DEVD-fmk
Protocol: as §1

FAK = FAK cleavage in response to docetaxel, Western blot; assay type: cell-based, human; conditions: in the presence of DEVD-fmk
Protocol: Cells were lysed in modified RIPA buffer (50 mM Tris, 150 mM NaCl, 1% triton, 0.5% deoxycholate plus 25 µg/ml leupeptin, 10 µg/ml aprotinin, 2 mM EDTA, and 1 mM sodium orthovanadate (Sigma Chemical Co, St. Louis, Mo.) as previously described (Sood et al., 2004; Sood et al., 2002). A sample was removed from culture dishes by cell scraping and centrifuged at 12,500 rpm for 30 min. The […] protein concentration of the supernatant was determined using a bicinchoninic acid protein assay reagent kit (Pierce, Rockford, Ill.), and whole cell lysates were analyzed by 7.5% SDS-PAGE. Samples were then transferred to nitrocellulose membrane by semi-dry transfer (BioRad Laboratories, Hercules, Calif.). Membranes were blocked with 5% nonfat milk, and incubated with 0.25 μg/mL anti-FAK antibody (Biosource, International Camarillo, Calif.) for 1 h at room temperature. Antibody was detected with 0.167 μg/mL HRP-conjugated anti-mouse secondary antibody (The Jackson Laboratory, Bar Harbor, Me.) and developed with an enhanced chemiluminescence detection kit (Pierce). Equal loading was confirmed by detection of β-actin (0.1 μg/ml, anti-β-actin antibody, Sigma Chemical). Densitometric analysis was performed using the Scion Imaging software (Scion Corporation, Frederick, Md.).
It has been reported that FAK may be cleaved by caspase-3 (Gervais et al., 1998; Sasaki et al., 2002; Carragher et al., 2001). Based on observations regarding modulation of caspase levels by docetaxel in ovarian cancer cells, FAK cleavage after treatment with docetaxel was examined and whether there are differences in extent of FAK cleavage between the taxane-sensitive and taxane-resistant cell lines. In SKOV3 cells, FAK was cleaved after 48 and 72 hours of exposure to docetaxel (FIG. 7A). The 71-kDa fragments increased after treatment with docetaxel, whereas the 125-kDa fragments decreased. […] To study the dependence of FAK cleavage on caspase-3, the effect of DEVDfmk (caspase-3 inhibitor) was examined.

CC(C)NC[C@H](O)COc1cccc2ccccc12 (racemic) [propranolol, S-propranolol hydrochloride]
invasive disease among stressed animals (HeyA8 cells [1]): 0%
effect of stress on tumor weight and number of nodules (HeyA8 cells [1]; daily 2 hour stress): stress did not significantly increase tumor weight or the number of tumor nodules
tumor burden (HeyA8 cells [2]): blocked the isoproterenol-induced increase in tumor growth
MVD counts (HeyA8 tumor samples): blocked that increase as well
stress-induced increases in MVD counts (HeyA8 tumor samples; stressed animals): efficiently blocked stress-induced increases in MVD counts
effect on VEGF mRNA (VEGF mRNA): blocked

CCCCCCOC(=O)[C@]1(O)C[C@@H]2O[C@@]1(C)n1c3ccccc3c3c4c(c5c6ccccc6n2c5c31)C(=O)NC4 [KT5720]
effect on VEGF mRNA (VEGF mRNA): efficiently blocked the effects of norepinephrine and forskolin on VEGF mRNA expression

COC(=O)CC[C@H](NC(=O)[C@H](CC(=O)OC)NC(=O)OCc1ccccc1)C(=O)N[C@H](C(=O)N[C@@H](CC(=O)OC)C(=O)CF)C(C)C [DEVD-fmk]
proportion of apoptotic cells (HeyA8 cells [3]): 6%
proportion of apoptotic cells (SKOV3 cells): 7%
docetaxel-induced FAK cleavage (FAK): docetaxel-induced FAK cleavage was blocked

CC(C)(C)NCC(O)c1cc(O)cc(O)c1 (stereo not drawn) [terbutaline]
MVD counts (HeyA8 tumor samples): significantly higher MVD counts compared to controls

CCCC(=O)Nc1ncnc2c1ncn2[C@@H]1O[C@@H]2COP(=O)(O)O[C@H]2[C@H]1OC(=O)CCC [dibutyryl cAMP]
effect on VEGF mRNA (VEGF mRNA): also increased VEGF mRNA levels
